Measurements as given in ChEMBL document CHEMBL5614376, “Discovery of MT-1207: A Novel, Potent Multitarget Inhibitor as a Promising Clinical Candidate for the Treatment of Hypertension” (J Med Chem, 2024).
Calls of active or inactive are those of the source. No cut-off for these calls is given here.

Experiments:
[1] = Metabolic stability in macaque liver microsomes assessed as drug metabolism at 10 umol/L incubated upto 120 mins in presence of NADPH by LC-MS/MS analysis; type: ADME, Microsome; conditions: macaca, 2 h, 10 µM, dose 10 µmol/L
[2] = molecular target: 5-hydroxytryptamine receptor 2A (Homo sapiens, UniProt P28223); experiment: Displacement of [3H]Ketanserin from recombinant human 5-HT2A receptor extracted from CHO cell membrane at 100 nM incubated for 60 mins by radioligand binding assay relative to control; type: cell membranes; conditions: filed as antagonist
Chain of 5-hydroxytryptamine receptor 2A (P28223 whole entry): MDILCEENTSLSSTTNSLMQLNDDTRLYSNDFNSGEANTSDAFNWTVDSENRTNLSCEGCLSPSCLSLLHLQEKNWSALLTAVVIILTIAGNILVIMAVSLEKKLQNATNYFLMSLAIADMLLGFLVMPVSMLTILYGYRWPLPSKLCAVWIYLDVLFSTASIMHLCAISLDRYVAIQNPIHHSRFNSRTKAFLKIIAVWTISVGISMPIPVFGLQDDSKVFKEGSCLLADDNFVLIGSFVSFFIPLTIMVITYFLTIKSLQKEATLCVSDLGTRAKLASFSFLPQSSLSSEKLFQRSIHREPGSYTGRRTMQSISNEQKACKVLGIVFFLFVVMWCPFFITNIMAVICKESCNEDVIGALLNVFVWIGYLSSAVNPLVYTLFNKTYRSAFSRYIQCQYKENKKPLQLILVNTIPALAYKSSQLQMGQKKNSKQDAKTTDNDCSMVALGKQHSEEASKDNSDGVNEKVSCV

[3] = Metabolic stability in macaque plasma assessed as enzymatic hydrolysis at 50 to 10000 ng/ml incubated upto 120 mins; type: ADME, cell-free; conditions: macaca, 2 h, dose 50-10000 ng/ml
[4] = Tmax in female Sprague-Dawley rat at 100 mg/kg, po measured on day 1 by UP/LC/MS/MS analysis; type: ADME, organism-based; conditions: in vivo, time 1 day
Rattus norvegicus [5] = experiment: Effect on serum K+ level in 2K2C renovascular hypertensive Sprague-Dawley rat model at 10 mg/kg, po measured after 9 weeks by biochemical analysis; type: functional, organism-based
[6] = Plasma protein binding in human at 1 uM incubated for 30 mins; type: ADME, cell-free; conditions: read-out: PPB (converted)
[7] = Apparent oral clearance in Sprague-Dawley rat at 1 mg/kg, po measured for 24 hrs by UPLC/MS/MS analysis; type: ADME, organism-based; conditions: in vivo
Rattus norvegicus [8] = experiment: Effect on postural hypotension in Sprague-Dawley rat assessed as change in systolic blood pressure at 5 mg/kg, po treated for >30 mins followed by induction of postural hypotension measured 10 secs after postural change (reference value: 127 +/- 12 mmHg); type: functional; conditions: time > 30.17 min, 0.5028 h
Rattus norvegicus [9] = experiment: Effect on postural hypotension in Sprague-Dawley rat assessed as change in systolic blood pressure at 10 mg/kg, po treated for >30 mins followed by induction of postural hypotension measured 20 secs after postural change (reference value: 129 +/- 11 mmHg); type: functional; conditions: time > 30.33 min, 0.5055 h
Rattus norvegicus [10] = experiment: Effect on postural hypotension in Sprague-Dawley rat assessed as change in systolic blood pressure at 10 mg/kg, po treated for >30 mins followed by induction of postural hypotension measured 40 secs after postural change (reference value: 128 +/- 11 mmHg); type: functional; conditions: time > 30.67 min, 0.5112 h
[11] = Metabolic stability in human liver microsomes assessed as drug elimination at 10 umol/L incubated for 5 mins in presence of NADPH by LC-MS/MS analysis; type: ADME, Microsome; conditions: 10 µM, dose 10 µmol/L
[12] = Acute toxicity in Sprague-Dawley rat assessed as discernible drug-related alterations at 250 to 1000 mg/kg, po single administration measured for 14 days; type: organism-based; conditions: in vivo, 336 h, dose 250-1000 mg/kg, time 14 day
[13] = Plasma protein binding in Cynomolgus monkey at 1 uM incubated for 30 mins; type: ADME, cell-free, Macaca fascicularis; conditions: read-out: PPB (converted)
[14] = Apparent oral clearance in Sprague-Dawley rat at 9 mg/kg, po measured for 24 hrs by UPLC/MS/MS analysis; type: ADME, organism-based; conditions: in vivo
Rattus norvegicus [15] = experiment: Effect on postural hypotension in Sprague-Dawley rat assessed as change in systolic blood pressure at 10 mg/kg, po treated for >30 mins followed by induction of postural hypotension measured immediately after postural change (reference value: 131 +/- 9 mmHg); type: functional; conditions: 0.5 h
[16] = Cmax in male Sprague-Dawley rat at 100 mg/kg, po qd treated for 13 weeks consecutively measured after recovery period on day 91 by UP/LC/MS/MS analysis; type: ADME, organism-based; conditions: in vivo, time 91 day
[17] = Tmax in female Sprague-Dawley rat at 30 mg/kg, po measured on day 1 by UP/LC/MS/MS analysis; type: ADME, organism-based; conditions: in vivo, time 1 day
[18] = Apparent volume of distribution during terminal phase in Sprague-Dawley rat at 9 mg/kg, po measured for 24 hrs by UPLC/MS/MS analysis; type: ADME, organism-based; conditions: in vivo, read-out: Vz/F
[19] = AUC (0 to t) in male Sprague-Dawley rat at 100 mg/kg, po qd treated for 13 weeks consecutively measured after recovery period on day 91 by UP/LC/MS/MS analysis; type: ADME, organism-based; conditions: in vivo, time 91 day
[20] = AUC (0 to t) in Sprague-Dawley rat at 9 mg/kg, po measured for 24 hrs by UPLC/MS/MS analysis; type: ADME, organism-based; conditions: in vivo
[21] = Plasma protein binding in human at 10 uM incubated for 30 mins; type: ADME, cell-free; conditions: read-out: PPB (converted)
[22] = Toxicity in Sprague-Dawley rat assessed as unplanned animal mortality at 10 to 100 mg/kg, po qd treated for 13 weeks consecutively measured after 4 week recovery period; type: organism-based; conditions: in vivo, 2856 h, dose 10-100 mg/kg, time 17 weeks
[23] = Half life in Sprague-Dawley rat at 1 mg/kg, iv measured for 24 hrs by UPLC/MS/MS analysis; type: ADME, organism-based; conditions: in vivo
[24] = Metabolic stability in macaque liver microsomes assessed as compound remaining at 10 umol/L incubated upto 120 mins in presence of NADPH by LC-MS/MS analysis; type: ADME, Microsome; conditions: macaca, dose 10 µmol/L, read-out: Stability
[25] = Tmax in Sprague-Dawley rat at 3 mg/kg, po measured for 24 hrs by UPLC/MS/MS analysis; type: ADME, organism-based; conditions: in vivo
[26] = Toxicity in Sprague-Dawley rat assessed as change in body weight at 100 mg/kg, po qd treated for 13 weeks consecutively measured post-cessation of treatment; type: organism-based; conditions: in vivo, 2184 h
[27] = Metabolic stability in rat liver microsomes assessed as drug elimination at 10 umol/L incubated for 5 mins in presence of NADPH by LC-MS/MS analysis; type: ADME, Microsome; conditions: 10 µM, dose 10 µmol/L
[28] = Apparent oral clearance in Sprague-Dawley rat at 1 mg/kg, iv measured for 24 hrs by UPLC/MS/MS analysis; type: ADME, organism-based; conditions: in vivo
[29] = Tmax in female Sprague-Dawley rat at 100 mg/kg, po qd treated for 13 weeks consecutively measured after recovery period on day 91 by UP/LC/MS/MS analysis; type: ADME, organism-based; conditions: in vivo, time 91 day
[30] = Acute toxicity in Sprague-Dawley rat assessed as change in body weight at 250 to 1000 mg/kg, po single administration measured for 14 days; type: organism-based; conditions: in vivo, 336 h, dose 250-1000 mg/kg, time 14 day
[31] = Tmax in female Sprague-Dawley rat at 10 mg/kg, po measured on day 1 by UP/LC/MS/MS analysis; type: ADME, organism-based; conditions: in vivo, time 1 day
[32] = Metabolic stability in human liver microsomes assessed as compound remaining at 10 umol/L incubated upto 120 mins in presence of NADPH by LC-MS/MS analysis; type: ADME, Microsome; conditions: dose 10 µmol/L, read-out: Stability
[33] = Cmax in female Sprague-Dawley rat at 30 mg/kg, po measured on day 1 by UP/LC/MS/MS analysis; type: ADME, organism-based; conditions: in vivo, time 1 day
[34] = Cmax in female Sprague-Dawley rat at 10 mg/kg, po measured on day 1 by UP/LC/MS/MS analysis; type: ADME, organism-based; conditions: in vivo, time 1 day
[35] = Apparent volume of distribution during terminal phase in Sprague-Dawley rat at 1 mg/kg, iv measured for 24 hrs by UPLC/MS/MS analysis; type: ADME, organism-based; conditions: in vivo
[36] = AUC (0 to t) in female Sprague-Dawley rat at 100 mg/kg, po qd treated for 13 weeks consecutively measured after recovery period on day 91 by UP/LC/MS/MS analysis; type: ADME, organism-based; conditions: in vivo, time 91 day

Cl.c1ccc2c(c1)nnn2CCCCN1CCN(c2nsc3ccccc23)CC1
Drug metabolism [1]: Metabolite_Detected | inhibition [2]: 99% | Stability [3]: Stable | Tmax [4]: 2 h | Activity (Rattus norvegicus [5]): Active | fraction unbound at 0.5 h, 1 µM [6]: 0.004 | CL/F [7]: 388 mL/min | Activity (Rattus norvegicus [8]): 82 mmHg | Activity (Rattus norvegicus [9]): 85 mmHg | Activity (Rattus norvegicus [10]): 85 mmHg | Drug excretion [11]: Active | Activity [12]: Non-Toxic | fraction unbound at 0.5 h, 1 µM [13]: 0.006 | CL/F [14]: 587 mL/min | Activity (Rattus norvegicus [15]): 89 mmHg | Cmax [16]: 538 ng/mL | Tmax [17]: 1 h | Vd/F [18]: 78.9 L | AUC(0-t) at 2184 h [19]: 4790 ng·h/mL | AUC(0-t) at 24 h [20]: 605 ng·h/mL | fraction unbound at 0.5 h, 10 µM [21]: 0.004 | Activity [22]: Non-Toxic | half-life [23]: 1.3 h | remaining at 2 h, 10 µM [24]: 1.5% | Tmax [25]: 2 h | Activity [26]: Non-Toxic | Drug excretion [27]: Active | CL/F [28]: 25 L/h | Tmax [29]: 2.5 h | Activity [30]: Non-Toxic | Tmax [31]: 1.3 h | remaining at 2 h, 10 µM [32]: 23.9% | Cmax [33]: 408 ng/mL | Cmax [34]: 88.7 ng/mL | Vz/F [35]: 4.5 L | AUC(0-t) at 2184 h [36]: 7450 ng·h/mL
